The results in this text go back to paper PMC11740726 (PNAS Nexus, 2025).

The subject of one data set is TA100. Conditions: Salmonella typhimurium.
The next data set concerns WP2 uvrA. Conditions: Escherichia coli.
Another data set deals with TA98. Conditions: Salmonella typhimurium.
The subject of data set [1] is SARS-CoV-2^WK-521. As to the kind of experiment: microbe, parasite or virus in culture. It counts as cell-based.
The nature of the next data set: in vitro. The following applies: African green monkey.
The subject of another data set is TA1537. Conditions: Salmonella typhimurium.
Another data set concerns SARS-CoV-2^BQ.1.1. The data set is described as follows: microbe, parasite or virus in culture. It counts as cell-based. Conditions: Severe acute respiratory syndrome coronavirus 2, read-out: SARS-CoV-2^BQ.1.1 in HeLa^hACE2-TMPRSS2 cells EC50.
Data set [2] deals with SARS-CoV-2 Omicron XBB.1.5. The data set is described as follows: microbe, parasite or virus in culture. It counts as cell-based. Conditions: for EC50: Severe acute respiratory syndrome coronavirus 2, read-out: EC50 in the presence of 1 mg/mL human AAG.
Data set [3] has as its system SARS-CoV-2^Omicron EG.5.1. As to the kind of experiment: microbe, parasite or virus in culture. It counts as cell-based. The following applies: Severe acute respiratory syndrome coronavirus 2, read-out: anti-SARS-CoV-2^Omicron EG.5.1 activity EC50 in primary human nasal epithelial (HNEp) cells.
In data set [4] the test system is SARS-CoV-2^WK-521. As to the kind of experiment: microbe, parasite or virus in culture. In kind it is cell-based. The following applies: Severe acute respiratory syndrome coronavirus 2, read-out: EC50, SARS-CoV-2^WK-521, HeLa^hACE2-TMPRSS2.
Data set [5] in a line: in vivo. Conditions: PXB (human liver-chimeric), mouse, po, 10 mg/kg.
In the next data set the target is SARS-CoV-2 M^pro (Severe acute respiratory syndrome coronavirus 2, UniProt P0DTD1). The data set is described as follows: SARS-CoV-2 M^pro enzyme assay (cell-free, fluorogenic substrate). It counts as biochemical. The following applies: authentic M^pro; mean ± 1 SD, three assays.
The target in a further data set is human cathepsin L (Homo sapiens, UniProt P07711). As to the kind of experiment: biochemical.
Another data set relates to human calpain. It counts as biochemical.
The subject of another data set is SARS-CoV-2^XBB1.5. Further details: species or system B6.Cg-Tg(K18-hACE2)2-Prlmn/J-transgenic mice. The following applies: mouse, in vivo.
Data set [6] concerns primary human nasal epithelial cells.
For data set [7], the system named is four Salmonella typhimurium strains (TA100, TA1535, TA98, TA1537) and one Escherichia coli strain (WP2 uvrA).
Data set [8] in a line: in vivo. Conditions: ICR, mouse, po, 10 mg/kg.
The mark [9] stands for this setting: Severe acute respiratory syndrome coronavirus 2, Vero C1008, read-out: EC50, SARS-CoV-2^WK-521, VeroE6 +2μM CP-100356.
[10] abbreviates: Severe acute respiratory syndrome coronavirus 2, Vero C1008, read-out: EC50, SARS-CoV-2^WK-521, VeroE6.
Setting [11] is: Severe acute respiratory syndrome coronavirus 2, Vero C1008, read-out: SARS-CoV-2^WK-521 in VeroE6 cells EC50.
Setting [12] is: read-out: EC50 against SARS-CoV-2^WK-521 in VeroE6 cells in the presence of CP100356.

Read-outs that look alike come from different tables or passages of the source.

Sequence of human cathepsin L (P07711 114-333): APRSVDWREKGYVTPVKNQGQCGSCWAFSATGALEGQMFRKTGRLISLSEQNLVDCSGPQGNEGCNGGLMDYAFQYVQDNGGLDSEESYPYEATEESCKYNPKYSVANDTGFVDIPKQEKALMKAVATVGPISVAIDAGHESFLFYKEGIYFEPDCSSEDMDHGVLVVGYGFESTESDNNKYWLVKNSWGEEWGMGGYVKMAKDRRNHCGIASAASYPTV

With `NC(=O)C(=Cc1ccc([N+](=O)[O-])o1)c1ccco1` [AF-2, 2-(2-Furyl)-3-(5-nitro-2-furyl)acrylamide], the figures for the “Number of colonies / plate (positive control)” value (“Number of colonies / plate” for short) in the data set on TA100, in the data set on WP2 uvrA and in the data set on TA98 were 29.0 ± 4. colonies / plate, 10.7± 3.1 colonies / plate and 22.7 ± 3.1 colonies / plate, respectively.
As to `Nc1ccc2cc3ccccc3cc2c1` [Compound 2AA, 2-Aminoanthracene], the results for the “Number of colonies / plate” value with TA1535 (Salmonella typhimurium) and with WP2 uvrA were 15.3 ± 1.2 colonies / plate and 49.0± 7.9 colonies / plate, respectively.
Regarding `Cn1cnc(Cn2c(=O)[nH]/c(=N\c3cc4cn(C)nc4cc3Cl)n(Cc3cc(F)c(F)cc3F)c2=O)n1` [Ensitrelvir, reference compound], the EC50 in the data set with SARS-CoV-2^WK-521 [1] (setting [9]) is 30 nM. In “in vitro”, the CC50 was greater than 100000 nM.
On to `COc1ccc2nc3cc(Cl)ccc3c(NCCCNCCCl)c2c1` [ICR-191, 2-Methoxy-6-chloro-9-[3-(2-chloroethyl)-aminopropylamino] acridine·2HCl], for which the “Number of colonies / plate” value in the data set with TA1537 came to 37.3± 2.5 colonies / plate.
For the compound `[N-]=[N+]=[N-].[Na+]` [NaN3, SodiumAzide], in the data set on TA1535, the “Number of colonies / plate” value was 29.3 ± 9.1 colonies / plate.
For `CC(C)(C)[C@H](NC(=O)C(F)(F)F)C(=O)N1C[C@H]2[C@@H]([C@H]1C(=O)N[C@H](C#N)C[C@@H]1CCNC1=O)C2(C)C` [Nirmatrelvir, reference compound], the EC50 in the data set with SARS-CoV-2^WK-521 [1] (setting [10]) came out at 1140 ± 190 nM; in the data set with SARS-CoV-2^WK-521 [1] (setting [9]) it was 20 ± 10 nM; in the data set with SARS-CoV-2^WK-521 [1] (setting [11]), 770 ± 180 nM; in the data set with SARS-CoV-2^WK-521 [1] (setting [12]), 36.3 nM; in the data set with SARS-CoV-2^BQ.1.1, 51 ± 16 nM; in [2], 160 nM. Also, the figures for the EC50 (in data set [3]; in the data set on SARS-CoV-2^WK-521 [4]) were 11100 nM and 20 nM, respectively. In addition, the “effect of 5 mg/mL human AAG on antiviral activity” value in [2] is reported as “further reduced the activity”. For the same compound, the half-life in the data set “in vivo [5]” is 1.43 h. Moreover, the CC50 in the data set “in vitro” was greater than 100000 nM.
On to `CC(C)(C)[C@H](NC(=O)C(F)(F)F)C(=O)N1C[C@H]2[C@@H]([C@H]1C(=O)N[C@@H](C[C@@H]1CCNC1=O)C(=O)c1nc3c(F)cccc3s1)C2(C)C` [TKB245], for which the EC50 amounted to 20 ± 7 nM with SARS-CoV-2^WK-521 [1] (setting [11]) and 3.5 nM in the data set on SARS-CoV-2^WK-521 [1] (setting [12]). Further, the “intracellular concentrations in VeroE6 cells” value in the data set with VeroE6 cells is given as “higher than those of nirmatrelvir”. In the data set “in vitro”, this compound returned a CC50 greater than 100000 nM.
For the compound `CC(C)(C)[C@H](NC(=O)C(F)(F)F)C(=O)N1C[C@H]2[C@@H]([C@H]1C(=O)N[C@@H](C[C@@H]1CCNC1=O)C(=O)c1nc3cccc(F)c3s1)C2(C)C` [TKB252], inhibition against SARS-CoV-2 M^pro was half-maximal at 200 ± 50 nM (IC50). Besides, the EC50 in the data set with SARS-CoV-2^WK-521 [1] (setting [11]) was found to be 62 ± 26 nM; in the data set with SARS-CoV-2^BQ.1.1 it was 57 ± 23 nM. For the same compound, the CC50 at 3 days in “in vitro” was greater than 100000 nM.
Consider `CC(C)(C)[C@H](NC(=O)C(F)(F)F)C(=O)N1C[C@H]2[C@@H]([C@H]1C(=O)N[C@@H](C[C@@H]1CCNC1=O)C(=O)c1nc3cc(F)ccc3s1)C2(C)C` [TKB272], for which the EC50 with SARS-CoV-2^WK-521 [1] (setting [10]) amounted to 15.8 ± 8.9 nM; with SARS-CoV-2^WK-521 [1] (setting [9]), 1 ± 1 nM; in the data set on SARS-CoV-2^WK-521 [1] (setting [11]), 7 ± 1 nM; with SARS-CoV-2^WK-521 [1] (setting [12]), 0.4 nM; in the data set on SARS-CoV-2^BQ.1.1, 2.6 ± 1 nM; in data set [2] it was 30 nM. Besides, the EC50 is 31 nM in data set [3] and 2.9 nM in the data set with SARS-CoV-2^WK-521 [4]. For the same compound, the “effect of 5 mg/mL human AAG on antiviral activity” value in [2] is “further reduced the activity”. The IC50 against human cathepsin L is greater than 16000 nM; in the data set on human calpain, greater than 2000 nM. In addition, on human cathepsin L, the “inhibition of human cathepsin L (target specificity)” value was “none of the human cysteine enzymes, cathepsin L or calpain, were appreciably inhibited”. Besides, in the data set with human calpain, the “inhibition of human calpain (target specificity)” value is given as “none of the human cysteine enzymes, cathepsin L or calpain, were appreciably inhibited”. Further, the “Lungs Virus titer” value in the data set on SARS-CoV-2^XBB1.5 is 5.1 Log10(PFU/g). For the same compound, the “Nasal turbinates Virus titer” value in the data set with SARS-CoV-2^XBB1.5 is on record as 3.2 Log10(PFU/g). For the same compound, the “intracellular concentrations in VeroE6 cells” value with VeroE6 cells is listed as “higher than those of nirmatrelvir”. For the same compound, the “intracellular concentrations in HeLa^hACE2-TMPRSS2 cells” value in the data set with HeLa^hACE2-TMPRSS2 cells is “greater than those of nirmatrelvir”. Also, the “intracellular concentrations in human primary nasal epithelial cells” value in data set [6] was “comparable to nirmatrelvir”. In [7], the “genotoxicity in the micro-Ames test” value is listed as “no apparent genotoxicity”. In addition, in data set [7], the “growth inhibition of bacterial strains in µAmes test” value is on record as “did not inhibit the growth of bacterial strains employed”. Further, in [7], the “increase of revertant colonies compared with negative control in µAmes test” value is on record as “did not increase the number of revertant colonies more than twice”. In addition, the half-life in the data set “in vivo [5]” is 3.12 h; in the data set “in vivo [8]”, 3.37 h. This compound also returned a CC50 in “in vitro” of 98000 ± 2100 nM.
The compound `CC(C)(C)[C@H](NC(=O)C(F)(F)F)C(=O)N1C[C@H]2[C@@H]([C@H]1C(=O)N[C@@H](C[C@@H]1CCNC1=O)C(=O)c1nc3ccc(F)cc3s1)C2(C)C` [TKB273] had an IC50 against SARS-CoV-2 M^pro of 8.9 ± 4.1 nM. In addition, the EC50 is 43 ± 24 nM with SARS-CoV-2^WK-521 [1] (setting [11]) and 114 ± 93 nM in the data set with SARS-CoV-2^BQ.1.1. Besides, the CC50 at 3 days in “in vitro” was greater than 100000 nM.
Regarding `CC(C)C(=O)OC[C@H]1O[C@@H](n2ccc(NO)nc2=O)[C@H](O)[C@@H]1O` [molnupiravir, reference compound], the EC50 in the data set with SARS-CoV-2^WK-521 [1] (setting [9]) is 840 nM.
With Nirmatrelvir + Ritonavir, in the data set on SARS-CoV-2^XBB1.5, the “Lungs Virus titer” value is 5.2 Log10(PFU/g) and the “Nasal turbinates Virus titer” value is given as 2.4 Log10(PFU/g).

Usually half-life stands for the time needed for the level to fall by half in the phase considered. One may read the IC50 as the concentration that gives 50% inhibition.
